For test [1], the target named is Cyclin-dependent kinase 13 (Homo sapiens, UniProt Q14004). Kind of test: Selectivity interaction (ActivX KiNativ screen (ex vivo kinase selectivity in human PBMCs)) EUB0001619a CDK13. To be noted: PBMC, at 1 µM. The test is classed as cell-based.
Test [2] has as its target Mitogen-activated protein kinase kinase kinase kinase 1 (Homo sapiens) (UniProt Q92918). Kind of test: Selectivity interaction (ActivX KiNativ screen (ex vivo kinase selectivity in human PBMCs)) EUB0001619a MAP4K1. The test is classed as cell-based. To be noted: PBMC, at 1 µM.
The target of test [3] is Serine/threonine-protein kinase MRCK alpha (Homo sapiens) (UniProt Q5VT25). To be noted: at 10 µM.
Serine/threonine-protein kinase MRCK alpha (Homo sapiens), sequence (Q5VT25 whole entry): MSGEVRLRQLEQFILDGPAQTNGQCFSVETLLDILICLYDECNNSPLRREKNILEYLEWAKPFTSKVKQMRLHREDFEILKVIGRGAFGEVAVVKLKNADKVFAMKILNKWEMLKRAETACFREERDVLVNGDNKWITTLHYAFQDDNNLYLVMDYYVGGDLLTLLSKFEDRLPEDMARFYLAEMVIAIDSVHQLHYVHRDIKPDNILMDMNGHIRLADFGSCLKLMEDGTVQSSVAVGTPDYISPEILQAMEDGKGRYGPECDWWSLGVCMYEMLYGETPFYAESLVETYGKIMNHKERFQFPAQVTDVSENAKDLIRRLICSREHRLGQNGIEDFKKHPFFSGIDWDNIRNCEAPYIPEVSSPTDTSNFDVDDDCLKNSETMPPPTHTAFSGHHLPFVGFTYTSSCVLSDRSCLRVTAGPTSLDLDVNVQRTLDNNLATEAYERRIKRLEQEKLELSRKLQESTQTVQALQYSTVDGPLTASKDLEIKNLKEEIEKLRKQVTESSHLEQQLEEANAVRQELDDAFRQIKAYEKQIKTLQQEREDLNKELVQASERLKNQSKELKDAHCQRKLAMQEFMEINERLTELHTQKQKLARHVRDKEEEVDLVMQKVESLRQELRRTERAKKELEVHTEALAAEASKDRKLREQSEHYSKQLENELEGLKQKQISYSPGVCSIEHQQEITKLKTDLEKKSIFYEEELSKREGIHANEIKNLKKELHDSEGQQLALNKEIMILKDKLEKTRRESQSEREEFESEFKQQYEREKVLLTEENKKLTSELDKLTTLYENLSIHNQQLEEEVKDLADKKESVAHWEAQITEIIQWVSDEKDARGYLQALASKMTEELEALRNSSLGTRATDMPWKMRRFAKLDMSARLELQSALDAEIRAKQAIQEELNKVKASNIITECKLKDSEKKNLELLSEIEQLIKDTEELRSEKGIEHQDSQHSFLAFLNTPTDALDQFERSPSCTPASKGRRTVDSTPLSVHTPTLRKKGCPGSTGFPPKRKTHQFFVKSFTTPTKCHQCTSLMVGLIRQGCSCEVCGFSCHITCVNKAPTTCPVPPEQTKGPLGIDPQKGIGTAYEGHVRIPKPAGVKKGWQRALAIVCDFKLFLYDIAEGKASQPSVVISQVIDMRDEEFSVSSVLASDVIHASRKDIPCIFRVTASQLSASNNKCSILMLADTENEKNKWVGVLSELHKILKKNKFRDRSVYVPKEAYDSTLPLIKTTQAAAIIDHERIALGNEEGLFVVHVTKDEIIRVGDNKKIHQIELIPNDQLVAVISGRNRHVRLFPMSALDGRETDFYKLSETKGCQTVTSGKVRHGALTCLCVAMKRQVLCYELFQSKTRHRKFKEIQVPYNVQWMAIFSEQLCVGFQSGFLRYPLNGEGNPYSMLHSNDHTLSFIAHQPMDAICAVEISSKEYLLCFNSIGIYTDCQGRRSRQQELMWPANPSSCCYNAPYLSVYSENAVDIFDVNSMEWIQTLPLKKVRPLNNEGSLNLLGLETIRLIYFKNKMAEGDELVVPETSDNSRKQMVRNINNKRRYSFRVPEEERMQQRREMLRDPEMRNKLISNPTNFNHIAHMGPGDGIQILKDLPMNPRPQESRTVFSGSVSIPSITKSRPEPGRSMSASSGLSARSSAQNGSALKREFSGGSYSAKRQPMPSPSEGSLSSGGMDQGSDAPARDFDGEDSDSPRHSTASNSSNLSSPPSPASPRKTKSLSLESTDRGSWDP
For test [4], the target named is Serine/threonine-protein kinase 10 (Homo sapiens) (UniProt O94804). Nature of the test: Selectivity interaction (ActivX KiNativ screen (kinase selectivity in THP-1 cell lysates)) EUB0000639a STK10. The test is classed as subcellular. As to conditions: lysate, at 0.04 µM.
Serine/threonine-protein kinase 10 (Homo sapiens), sequence (O94804 whole entry, looked up): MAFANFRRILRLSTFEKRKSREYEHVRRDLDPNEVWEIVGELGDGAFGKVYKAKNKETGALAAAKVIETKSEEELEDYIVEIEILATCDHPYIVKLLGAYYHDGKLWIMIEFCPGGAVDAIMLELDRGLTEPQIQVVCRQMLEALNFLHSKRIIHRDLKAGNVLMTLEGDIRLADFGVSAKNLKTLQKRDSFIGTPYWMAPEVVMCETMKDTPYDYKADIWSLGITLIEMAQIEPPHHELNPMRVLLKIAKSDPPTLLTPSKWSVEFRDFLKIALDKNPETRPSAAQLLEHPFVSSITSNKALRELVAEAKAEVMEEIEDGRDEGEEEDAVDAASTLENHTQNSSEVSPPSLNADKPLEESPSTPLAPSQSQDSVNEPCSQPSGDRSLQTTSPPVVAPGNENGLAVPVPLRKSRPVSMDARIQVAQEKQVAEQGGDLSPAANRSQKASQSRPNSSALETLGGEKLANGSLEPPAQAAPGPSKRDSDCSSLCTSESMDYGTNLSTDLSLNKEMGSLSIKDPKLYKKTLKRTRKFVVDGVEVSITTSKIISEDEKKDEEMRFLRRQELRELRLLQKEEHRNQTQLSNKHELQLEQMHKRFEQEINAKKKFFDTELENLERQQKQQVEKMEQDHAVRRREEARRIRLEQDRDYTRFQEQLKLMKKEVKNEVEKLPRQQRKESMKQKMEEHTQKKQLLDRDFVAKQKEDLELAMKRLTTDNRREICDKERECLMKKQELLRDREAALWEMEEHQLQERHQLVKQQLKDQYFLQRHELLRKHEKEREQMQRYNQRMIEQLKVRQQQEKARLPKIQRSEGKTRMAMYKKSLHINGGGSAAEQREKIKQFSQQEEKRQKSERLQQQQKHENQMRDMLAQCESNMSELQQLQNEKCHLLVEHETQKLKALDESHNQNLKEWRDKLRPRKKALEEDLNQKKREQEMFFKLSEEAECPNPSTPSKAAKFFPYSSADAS
Test [5] has as its target T1, Serine/threonine-protein kinase Nek9 (Homo sapiens) (UniProt Q8TD19).
T1 sequence (whole entry): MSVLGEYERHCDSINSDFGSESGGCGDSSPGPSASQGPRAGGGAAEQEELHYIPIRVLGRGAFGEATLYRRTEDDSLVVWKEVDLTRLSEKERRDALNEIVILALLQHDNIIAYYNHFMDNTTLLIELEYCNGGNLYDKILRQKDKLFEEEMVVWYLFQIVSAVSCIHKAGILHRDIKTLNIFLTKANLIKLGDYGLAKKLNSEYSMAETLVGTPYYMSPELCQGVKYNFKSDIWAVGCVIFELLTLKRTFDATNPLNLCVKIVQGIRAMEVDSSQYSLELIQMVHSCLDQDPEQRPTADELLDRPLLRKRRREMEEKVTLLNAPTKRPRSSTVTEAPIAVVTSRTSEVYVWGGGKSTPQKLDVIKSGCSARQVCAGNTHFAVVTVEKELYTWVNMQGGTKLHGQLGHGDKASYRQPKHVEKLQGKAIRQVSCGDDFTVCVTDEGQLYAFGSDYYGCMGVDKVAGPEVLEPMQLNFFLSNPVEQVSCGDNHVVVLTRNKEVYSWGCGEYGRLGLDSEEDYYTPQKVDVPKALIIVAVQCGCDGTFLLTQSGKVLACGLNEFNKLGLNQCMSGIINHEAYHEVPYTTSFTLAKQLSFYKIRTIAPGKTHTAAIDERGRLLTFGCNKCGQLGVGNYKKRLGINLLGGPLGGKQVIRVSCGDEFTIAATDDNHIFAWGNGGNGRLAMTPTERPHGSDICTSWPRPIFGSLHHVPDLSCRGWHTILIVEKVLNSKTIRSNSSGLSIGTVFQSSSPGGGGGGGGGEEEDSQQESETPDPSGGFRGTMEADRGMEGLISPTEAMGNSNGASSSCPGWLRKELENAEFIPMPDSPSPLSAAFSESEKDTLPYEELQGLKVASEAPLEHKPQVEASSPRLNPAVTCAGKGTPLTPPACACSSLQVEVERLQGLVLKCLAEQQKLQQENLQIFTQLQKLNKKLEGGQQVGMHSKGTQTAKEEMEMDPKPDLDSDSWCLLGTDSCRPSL
Nature of the test: Selectivity interaction (ProQinase) EUB0000171b NEK9.

For test [6], the target named is T2, Phosphorylase b kinase gamma catalytic chain, liver/testis isoform (Homo sapiens) (UniProt P15735).
T2 sequence (whole entry): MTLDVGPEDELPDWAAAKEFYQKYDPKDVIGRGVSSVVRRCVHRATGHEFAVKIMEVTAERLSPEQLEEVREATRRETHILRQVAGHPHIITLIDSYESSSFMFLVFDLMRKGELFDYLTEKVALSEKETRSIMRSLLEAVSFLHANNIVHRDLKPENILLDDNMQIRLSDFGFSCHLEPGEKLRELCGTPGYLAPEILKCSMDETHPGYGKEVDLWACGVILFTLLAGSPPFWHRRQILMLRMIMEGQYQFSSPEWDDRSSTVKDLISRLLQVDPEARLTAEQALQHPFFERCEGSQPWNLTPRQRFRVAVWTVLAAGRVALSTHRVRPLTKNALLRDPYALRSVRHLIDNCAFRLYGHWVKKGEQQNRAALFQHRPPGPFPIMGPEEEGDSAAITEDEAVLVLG
Kind of test: Selectivity interaction (ProQinase) EUB0000171b PHKG2.

Test [7] deals with Dual specificity protein kinase CLK3 (Homo sapiens, UniProt P49761). Kind of test: Selectivity interaction (ProQinase) EUB0000171b CLK3.
Dual specificity protein kinase CLK3, sequence (P49761 whole entry, looked up): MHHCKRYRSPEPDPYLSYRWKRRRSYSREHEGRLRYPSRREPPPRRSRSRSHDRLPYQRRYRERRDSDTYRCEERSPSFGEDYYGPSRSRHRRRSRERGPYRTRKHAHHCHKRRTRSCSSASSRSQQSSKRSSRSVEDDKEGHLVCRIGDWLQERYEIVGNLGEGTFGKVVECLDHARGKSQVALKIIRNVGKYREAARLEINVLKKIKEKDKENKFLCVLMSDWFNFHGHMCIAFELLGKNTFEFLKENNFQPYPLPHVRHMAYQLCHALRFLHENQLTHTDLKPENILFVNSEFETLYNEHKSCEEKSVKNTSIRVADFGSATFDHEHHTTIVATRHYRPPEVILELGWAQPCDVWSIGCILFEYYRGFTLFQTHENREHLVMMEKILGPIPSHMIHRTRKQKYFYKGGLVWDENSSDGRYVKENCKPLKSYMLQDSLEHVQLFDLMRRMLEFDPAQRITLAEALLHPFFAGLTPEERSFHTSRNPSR
Test [8] deals with SRSF protein kinase 3 (Homo sapiens) (UniProt Q9UPE1). Kind of test: Selectivity interaction (KinomeScan (DiscoverX)) EUB0001049a SRPK3. To be noted: at 1 µM.
Test [9] has as its target Glutamate receptor ionotropic, NMDA 1 (Homo sapiens) (UniProt Q05586). Kind of test: Selectivity interaction (Panel of kinases, GPCRs, ion channels and transporters (enzymatic assay)) EUB0000223bCl GRIN1.
In test [10] the target is SWI/SNF-related matrix-associated actin-dependent regulator of chromatin subfamily A member 4 (Homo sapiens) (UniProt P51532). Kind of test: Selectivity interaction (Bromodomain panel (DSF asssay)) EUB0000270b SMARCA4.
The target in test [11] is T3, Rhodopsin kinase GRK1 (Homo sapiens) (UniProt Q15835).
T3 sequence (whole entry): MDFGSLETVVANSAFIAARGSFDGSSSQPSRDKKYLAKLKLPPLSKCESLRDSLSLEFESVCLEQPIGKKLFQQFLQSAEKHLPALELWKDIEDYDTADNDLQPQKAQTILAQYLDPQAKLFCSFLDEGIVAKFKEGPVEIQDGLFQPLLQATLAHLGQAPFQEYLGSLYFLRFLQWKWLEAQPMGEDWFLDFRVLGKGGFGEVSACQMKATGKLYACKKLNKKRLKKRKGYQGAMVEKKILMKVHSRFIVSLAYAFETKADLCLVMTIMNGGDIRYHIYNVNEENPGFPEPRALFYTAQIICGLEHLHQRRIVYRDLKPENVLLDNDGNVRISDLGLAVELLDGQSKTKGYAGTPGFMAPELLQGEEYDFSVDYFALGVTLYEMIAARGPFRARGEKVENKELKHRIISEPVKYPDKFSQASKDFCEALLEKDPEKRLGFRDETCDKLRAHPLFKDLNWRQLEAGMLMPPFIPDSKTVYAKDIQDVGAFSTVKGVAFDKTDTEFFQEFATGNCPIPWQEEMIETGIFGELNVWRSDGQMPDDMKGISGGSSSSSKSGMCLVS
Nature of the test: Selectivity interaction (KinomeScan (DiscoverX)) EUB0000229b GRK1. To be noted: at 10 µM.

Cyclin-dependent kinase 13, sequence (Q14004 whole entry, looked up): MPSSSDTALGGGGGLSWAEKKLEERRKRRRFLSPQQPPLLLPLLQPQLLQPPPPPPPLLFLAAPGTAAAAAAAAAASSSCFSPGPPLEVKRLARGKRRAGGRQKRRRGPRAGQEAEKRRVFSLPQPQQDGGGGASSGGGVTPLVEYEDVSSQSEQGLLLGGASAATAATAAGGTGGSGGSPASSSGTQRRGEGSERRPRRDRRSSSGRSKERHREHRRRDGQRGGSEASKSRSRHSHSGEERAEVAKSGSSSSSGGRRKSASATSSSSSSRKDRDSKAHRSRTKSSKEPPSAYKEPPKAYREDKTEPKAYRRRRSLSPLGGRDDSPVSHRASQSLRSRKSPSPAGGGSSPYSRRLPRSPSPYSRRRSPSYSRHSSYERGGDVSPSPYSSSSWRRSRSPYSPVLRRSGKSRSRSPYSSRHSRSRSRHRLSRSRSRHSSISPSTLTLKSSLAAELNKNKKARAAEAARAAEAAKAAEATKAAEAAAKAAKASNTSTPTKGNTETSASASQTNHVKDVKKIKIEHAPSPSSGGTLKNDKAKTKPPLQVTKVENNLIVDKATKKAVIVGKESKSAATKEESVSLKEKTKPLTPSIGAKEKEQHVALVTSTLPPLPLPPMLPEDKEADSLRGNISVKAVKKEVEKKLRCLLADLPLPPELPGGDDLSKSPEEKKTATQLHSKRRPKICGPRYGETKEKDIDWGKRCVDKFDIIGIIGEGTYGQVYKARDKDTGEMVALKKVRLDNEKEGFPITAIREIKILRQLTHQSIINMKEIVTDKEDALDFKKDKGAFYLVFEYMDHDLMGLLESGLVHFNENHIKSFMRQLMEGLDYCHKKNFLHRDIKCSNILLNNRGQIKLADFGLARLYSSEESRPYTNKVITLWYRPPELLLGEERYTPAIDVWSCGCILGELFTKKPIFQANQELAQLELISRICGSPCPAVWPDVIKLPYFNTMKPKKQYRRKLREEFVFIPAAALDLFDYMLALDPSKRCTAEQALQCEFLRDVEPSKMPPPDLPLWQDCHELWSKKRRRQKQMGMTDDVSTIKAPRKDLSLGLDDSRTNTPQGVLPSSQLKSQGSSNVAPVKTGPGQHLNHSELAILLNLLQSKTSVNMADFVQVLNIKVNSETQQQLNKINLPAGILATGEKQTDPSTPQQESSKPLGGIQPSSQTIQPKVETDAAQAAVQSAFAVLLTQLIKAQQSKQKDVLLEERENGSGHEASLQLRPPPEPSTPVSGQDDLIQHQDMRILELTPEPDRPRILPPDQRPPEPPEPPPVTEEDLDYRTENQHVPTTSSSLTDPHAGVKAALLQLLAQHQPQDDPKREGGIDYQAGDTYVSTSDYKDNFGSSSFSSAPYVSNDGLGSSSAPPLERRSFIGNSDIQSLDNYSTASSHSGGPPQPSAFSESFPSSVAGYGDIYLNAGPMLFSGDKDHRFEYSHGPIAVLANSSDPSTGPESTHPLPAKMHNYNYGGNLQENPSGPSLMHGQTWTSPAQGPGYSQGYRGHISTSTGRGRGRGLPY

Take `N#Cc1cccc(-c2c[nH]c3ncnc(N4CCOCC4)c23)c1`: the % of inhibition in test [1] stood at 3%; in test [2] it was 26%. In test [3], `CCN(CC)CCCCNc1ncc2cc(-c3cc(OC)cc(OC)c3)c(NC(=O)NC(C)(C)C)nc2n1` showed a % of control of 100%. For `CC[C@@H]1[C@H](F)C(=O)N[C@@H]1COc1nccc2cc(C(N)=O)c(OC)cc12` [ZIMLOVISERTIB], the % of inhibition in [4] is -10.5%.

Take `C=CC(=O)Nc1cccc(C(=O)Nc2ccc(Nc3cc(-c4[nH]c(SC)nc4C)ccn3)cc2)c1`: the % of control in [5] (at 1 µM) worked out at 97%; in [5] (at 5 µM), 73%; in test [6] (at 1 µM) it was 94%; in test [6] (at 5 µM) it was 96%; in test [7] (at 1 µM), 98%; in test [7] (at 5 µM), 89%. For the compound `COc1cc(Nc2nc(C)cc(-c3cnn4nc(OC)ccc34)n2)cc(C(F)(F)F)c1`, the % of control in [8] was 65%. As for `COc1cc(C(=O)N2CC[C@@H](O)[C@@H](N)C2)cc2nc(-c3cc4ccccc4n3CC3CC3)n(C)c12`, the pXC50 in test [9] turned out to be 4.8 M.

The compound `Cc1cc(CN)cc(C)c1-c1ncn(C)c1-c1cncn1C` registered a dTM in test [10] of -1.35 K.

Consider `COc1cc(N(C)c2ccnc3ccc(C(F)(F)F)cc23)cc(OC)c1OC`, for which the % binding in test [11] is 68%.

These data come from ChEMBL document CHEMBL5465560, “Selectivity Literature for EUbOPEN Chemogenomic Library” (2024).
